Each compound was assayed on HCV genotype 1a replicon cell line (assay: HCV Genotype 1a Replicon Assay). Details: Hepatitis C virus, Huh7.5 cell background, NS3-specific protease activity in lysates, 48 or 72 hours, read-out: pEC50 Genotype 1a (converted).
Format: cell-based
Description: Assay 2: HCV Genotype 1a Replicon Assay
The HCV genotype 1a replicon cell line was obtained from Apath LLC (APC89; Huh7.5 cell background). This subgenomic replicon contains the N-terminus of the HCV core protein fused to the neomycin-resistance selectable marker. The EMCV IRES lies downstream and drives expression of the non-structural proteins NS3-NS5B. Compound potencies were determined using the NS3-specific protease activity in lysates as a measurement of compound inhibition of replicon levels.
Cells were grown at 37° C. in a 5% CO2 humidified incubator in DMEM (Invitrogen) with 10% FBS (HyClone), 1×NEAA (Invitrogen), 1× Pen-Strep (Invitrogen), and 850 μg/mL G418 (Invitrogen). On day 1 of the assay, cells were plated at 15,000 cells/well in black 96-well tissue culture plates (Costar) in 200 μL media lacking G418. […] Compounds were initially diluted in DMSO and then diluted another 200× in media to bring the final DMSO concentration down to 0.5%. The cells were incubated with test compounds for 48 or 72 hours. At the end of the incubation period, media and compound were removed from the plates.
To determine the NS3-specific protease activity in lysates, the cells were lysed at room temperature in 50 μL/well of 50 mM Hepes pH 7.5, 150 mM NaCl, 15% Glycerol, 0.15% Triton X-100, 10 mM DTT for 20 minutes with shaking. 50 μL of an NS3/4a protease-specific FRET substrate (Anaspec RET S1 Cat#22991) was then added to the wells at a final concentration of 15 μM. The plates were incubated at 37° C. for 20 minutes, which corresponds to a timepoint at which the protease activity is still in the linear phase. Protease activity was determined by measuring fluorescence (Excitation: 340 nm; Emission: 509 nm).
To analyze the data, the fluorescence was plotted vs. the compound concentration, and EC50 values were determined from a 4-parameter robust fit model using GraphPad Prism software.

COC(=O)N[C@H](C(=O)N1CC(C)=C[C@H]1c1nc(-c2ccc(-c3cc(Cl)c(NC(=O)c4ccc(N5CCN(C(=O)C(C)(C)C)C[C@H]5C)nc4)cc3OC(F)(F)F)cc2)c[nH]1)C(C)C [Example 1, [(S)-1-((S)-2-{4-[5′-Chloro-4′-({6-[(R)-4-(2,2-dimethyl-propionyl)-2-methyl-piperazin-1-yl]-pyridine-3-carbonyl}-amino)-2′-trifluoromethoxy-biphenyl-4-yl]-1H-imidazol-2-yl}-4-methyl-2,5-dihydro-pyrrole-1-carbonyl)-2-methyl-propyl]-carbamic acid methyl ester] and COC(=O)N[C@H](C(=O)N1CC(C2CC2)=C[C@H]1c1nc(-c2ccc(-c3cc(Cl)c(NC(=O)c4ccc(N5CCN(C(=O)C(C)(C)C)C[C@H]5C)nc4)cc3OC(F)(F)F)cc2)c[nH]1)C(C)C [Example 3, [(S)-1-((S)-2-{4-[5′-Chloro-4′-({6-[(R)-4-(2,2-dimethyl-propionyl)-2-methyl-piperazin-1-yl]-pyridine-3-carbonyl}-amino)-2′-trifluoromethoxy-biphenyl-4-yl]-1H-imidazol-2-yl}-4-cyclopropyl-2,5-dihydro-pyrrole-1-carbonyl)-2-methyl-propyl]-carbamic acid methyl ester] cannot be ordered by EC50: < 100 pM for the first, < 100 pM for the second.

COC(=O)N[C@H](C(=O)N1CC(C)CC[C@H]1c1nc(-c2ccc(-c3cc(Cl)c(NC(=O)c4ccc(N5CCN(C(=O)C(C)(C)C)C[C@H]5C)nc4)cc3OC(F)(F)F)cc2)c[nH]1)C(C)C (stereo partly drawn) [Example 1-5] and COC(=O)N[C@H](C(=O)N1C[C@@H](C)CC[C@H]1c1nc(-c2ccc(-c3cc(Cl)c(NC(=O)c4ccc(N5CCN(C(=O)C(C)(C)CO)C[C@H]5C)nc4)cc3OC(F)(F)F)cc2)c[nH]1)C(C)C [Example 11, [(S)-1-((2S,5S)-2-{4-[5′-Chloro-4′-({6-[(R)-4-(3-hydroxy-2,2-dimethyl-propionyl)-2-methyl-piperazin-1-yl]-pyridine-3-carbonyl}-amino)-2′-trifluoromethoxy-biphenyl-4-yl]-1H-imidazol-2-yl}-5-methyl-piperidine-1-carbonyl)-2-methyl-propyl]-carbamic acid methyl ester] fall in the same range of EC50: 100 to 1000 pM for the first, 100 to 1000 pM for the second.

COC(=O)N[C@H](C(=O)N1CC(C)=C[C@H]1c1nc(-c2ccc(-c3cc(Cl)c(NC(=O)c4ccc(N5CCN(C(=O)[C@H]6CC6(C)C)C[C@H]5C)nc4)cc3OC(F)(F)F)cc2)c[nH]1)C(C)C [Example 2, ((S)-1-{(S)-2-[4-(5′-Chloro-4′-{[6-((R)-4-(S)-2,2-dimethylcyclopropanecarbonyl-2-methyl-piperazin-1-yl)-pyridine-3-carbonyl]-amino}-2′-trifluoromethoxy-biphenyl-4-yl)-1H-imidazol-2-yl]-4-methyl-2,5-dihydro-pyrrole-1-carbonyl}-2-methyl-propyl)-carbamic acid methyl ester] and COC(=O)N[C@H](C(=O)N1[C@@H]2C[C@@H]2CC[C@H]1c1nc(-c2ccc(-c3cc(Cl)c(NC(=O)c4ccc(N5CCN(C(=O)[C@H]6CC6(C)C)C[C@H]5C)nc4)cc3OC(F)(F)F)cc2)c[nH]1)C(C)C [Example 5-8] cannot be ordered by EC50: < 100 pM for the first, < 100 pM for the second.

COC(=O)N[C@H](C(=O)N1CC(C)=C[C@H]1c1nc(-c2ccc(-c3ccc(C(=O)Nc4ccc(N5CC(C)N(C(=O)C6CC6)C[C@H]5C)nc4)cc3OC(F)(F)F)cc2)c[nH]1)C(C)C (stereo partly drawn) [Example 2-1] and COC(=O)N[C@H](C(=O)N1CC(C)=C[C@H]1c1nc(-c2ccc(-c3ccc(C(=O)Nc4ccc(N5CC(C)N(C(=O)C6CC6(Cl)Cl)C[C@H]5C)nc4)cc3OC(F)(F)F)cc2)c[nH]1)C(C)C (stereo partly drawn) [Example 2-7] fall in the same range of EC50: 100 to 1000 pM for the first, 100 to 1000 pM for the second.

CNC(=O)N1C[C@@H](C)N(c2ccc(NC(=O)c3ccc(-c4ccc(-c5c[nH]c([C@@H]6C=C(C)CN6C(=O)[C@@H](NC(=O)OC)C(C)C)n5)cc4)c(OC(F)(F)F)c3)cn2)CC1C (stereo partly drawn) [Example 2-2] and COC(=O)N[C@H](C(=O)N1CC(C)=C[C@H]1c1nc(-c2ccc(-c3ccc(C(=O)Nc4ccc(N5CC(C)N(C(=O)C(C)(C)C)C[C@H]5C)nc4)cc3OC(F)(F)F)cc2)c[nH]1)C(C)C (stereo partly drawn) [Example 2-3] fall in the same range of EC50: 100 to 1000 pM for the first, 100 to 1000 pM for the second.

COC(=O)N[C@H](C(=O)N1CC(C)=C[C@H]1c1nc(-c2ccc(-c3ccc(C(=O)Nc4ccc(N5CC(C)N(C(=O)CNC(C)=O)C[C@H]5C)nc4)cc3OC(F)(F)F)cc2)c[nH]1)C(C)C (stereo partly drawn) [Example 2-5] and COC(=O)N[C@H](C(=O)N1CC(C)=C[C@H]1c1nc(-c2ccc(-c3ccc(C(=O)Nc4ccc(N5CC(C)N(C(=O)C6(O)CC6(C)C)C[C@H]5C)nc4)cc3OC(F)(F)F)cc2)c[nH]1)C(C)C (stereo partly drawn) [Example 2-6] fall in the same range of EC50: 100 to 1000 pM for the first, 100 to 1000 pM for the second.

COC(=O)N[C@H](C(=O)N1CC(C)=C[C@H]1c1nc(-c2ccc(-c3ccc(C(=O)Nc4ccc(N5CC(C)N(C(=O)C(C)(C)NC(=O)C6CCC6)C[C@H]5C)nc4)cc3OC(F)(F)F)cc2)c[nH]1)C(C)C (stereo partly drawn) [Example 2-9] and COC(=O)N[C@H](C(=O)N1CC(C2CC2)=C[C@H]1c1nc(-c2ccc(-c3ccc(C(=O)Nc4ccc(N5CCN(C(=O)C(C)(C)C)C[C@H]5C)nc4)cc3OC(F)(F)F)cc2)c[nH]1)C(C)C [Example 12, ((S)-1-{(S)-4-Cyclopropyl-2-[4-(4′-{6-[(R)-4-(2,2-dimethyl-propionyl)-2-methyl-piperazin-1-yl]-pyridin-3-ylcarbamoyl}-2′-trifluoromethoxy-biphenyl-4-yl)-1H-imidazol-2-yl]-2,5-dihydro-pyrrole-1-carbonyl}-2-methyl-propyl)-carbamic acid methyl ester] fall in the same range of EC50: 100 to 1000 pM for the first, 100 to 1000 pM for the second.

[2H]C([2H])([2H])C1(C([2H])([2H])[2H])CC1C(=O)N1C[C@@H](C)N(c2ccc(NC(=O)c3ccc(-c4ccc5c(ccc6[nH]c([C@@H]7C[C@H](C)CN7C(=O)[C@@H](NC(=O)OC)C(C)C)nc65)c4)c(OC(F)(F)F)c3)cn2)CC1C (stereo partly drawn) [Example 3-8] and COC(=O)N[C@H](C(=O)N1C[C@@H](C)C[C@H]1c1nc2c(ccc3cc(-c4ccc(C(=O)Nc5ccc(N6CC(C)N(C(=O)C7CC7)C[C@H]6C)nc5)cc4OC(F)(F)F)ccc32)[nH]1)C(C)C (stereo partly drawn) [Example 3-11] cannot be ordered by EC50: < 100 pM for the first, < 100 pM for the second.

COC(=O)N[C@H](C(=O)N1C[C@@H](C)C[C@H]1c1nc2c(ccc3cc(-c4ccc(C(=O)Nc5ccc(N6CC(C)N(C(=O)C(C)(C)C)C[C@H]6C)nc5)cc4OC(F)(F)F)ccc32)[nH]1)C(C)C (stereo partly drawn) [Example 3-9] and COC(=O)N[C@H](C(=O)N1C[C@@H](C)C[C@H]1c1nc2c(ccc3cc(-c4ccc(C(=O)Nc5ccc(N6CC(C)N(C(=O)N(C)C)C[C@H]6C)nc5)cc4OC(F)(F)F)ccc32)[nH]1)C(C)C (stereo partly drawn) [Example 3-10] cannot be ordered by EC50: < 100 pM for the first, < 100 pM for the second.

First: COC(=O)N[C@H](C(=O)N1[C@@H]2CC[C@@H](C2)[C@H]1c1nc(-c2ccc(-c3cc(Cl)c(NC(=O)c4ccc(N5CCN(C(=O)C(C)(C)C)C[C@H]5C)nc4)cc3OC(F)(F)F)cc2)c[nH]1)C1CCOCC1 [Example 5-4]
Second: COC(=O)N[C@H](C(=O)N1C[C@H]2[C@@H]([C@H]1c1nc(-c3ccc(-c4cc(Cl)c(NC(=O)c5ccc(N6CCN(C(=O)C(C)(C)C)C[C@H]6C)nc5)cc4OC(F)(F)F)cc3)c[nH]1)C2(C)C)C1CCOCC1 [Example 5-12]
The EC50 of the first is lower: < 100 pM for the first, 100 to 1000 pM for the second.

Compared with COC(=O)N[C@H](C(=O)N1[C@@H]2CC[C@@H](C2)[C@H]1c1nc(-c2ccc(-c3cc(Cl)c(NC(=O)c4ccc(N5CCN(C(=O)C(C)(C)C)C[C@H]5C)nc4)cc3OC(F)(F)F)cc2)c[nH]1)C(C)C [Example 5-5], COC(=O)N[C@H](C(=O)N1[C@@H]2C[C@@H]2CC[C@H]1c1nc(-c2ccc(-c3cc(Cl)c(NC(=O)c4ccc(N5CCN(C(=O)C(C)(C)CO)C[C@H]5C)nc4)cc3OC(F)(F)F)cc2)c[nH]1)C(C)C [Example 5-9] is lower in EC50: 100 to 1000 pM for the first, < 100 pM for the second.

COC(=O)N[C@H](C(=O)N1C[C@H]2[C@@H]([C@H]1c1nc(-c3ccc(-c4cc(Cl)c(NC(=O)c5ccc(N6CCN(C(=O)C(C)(C)C)C[C@H]6C)nc5)cc4OC(F)(F)F)cc3)c[nH]1)C2(C)C)C(C)C [Example 5-11] and COC(=O)N[C@H](C(=O)N1C[Si](C)(C)C[C@H]1c1nc(-c2ccc(-c3cc(Cl)c(NC(=O)c4ccc(N5CCN(C(=O)C(C)(C)C)C[C@H]5C)nc4)cc3OC(F)(F)F)cc2)c[nH]1)C(C)C [Example 6, [(S)-1-((R)-5-{4-[5′-Chloro-4′-({6-[(R)-4-(2,2-dimethyl-propionyl)-2-methyl-piperazin-1-yl]-pyridine-3-carbonyl}-amino)-2′-trifluoromethoxy-biphenyl-4-yl]-1H-imidazol-2-yl}-3,3-dimethyl-[1,3]azasilolidine-1-carbonyl)-2-methyl-propyl]-carbamic acid methyl ester] fall in the same range of EC50: 100 to 1000 pM for the first, 100 to 1000 pM for the second.

Reference: patent US9365549B2, “Hepatitis C virus inhibitors” (THERAVANCE BIOPHARMA R&D IP, LLC, priority 2012, dated 2016)
